Here are results for 10 molecules from patent US10583137B2, “Triazole DAGLα inhibitors” (THE SCRIPPS RESEARCH INSTITUTE, priority 2015, dated 2020).

For one assay, the target named is DAGLβ (hDAGLβ-FLAG) (Homo sapiens (Human), UniProt Q8NCG7). The assay can be described thus: competitive ABPP, membrane proteome of transfected HEK293T cells. In kind it is biochemical. The settings on record: for inhibition at 0.8 µM: read-out: DAGLβ % inh. 0.8 μM. On the procedure: (§1) Compounds 19 and 20 were tested for in vitro inhibition of DAGLα and DAGLβ as measured by competitive activity-based protein profiling (ABPP) of […] using a HT-01 probe (targets DAGLα and DAGLβ) and a FP-Rh probe (targets serine hydrolases).
(§2) Briefly, membrane proteome (1 mg/ml, 20 μL) was prepared from HEK293T cells (transiently transfected with hDAGLα-FLAG or hDAGLα-S472A-FLAG, hDAGLβ-FLAG or hDAGLβ-S443A-FLAG) as described in Example 16. The proteome was incubated at room temperature with vehicle (DMSO) or compound in 0.5 μL DMSO for 30 min. The membrane proteome sample was subsequently treated for 30 min with HT-01 probe (1 μM) or FP-Rh probe (1 μM). The reactions were quenched with 10 μL 3× Laemmli sample buffer (final concentrations: 60 mM Tris-Cl pH 6.8, 2% (w/v) SDS, 10% (v/v) glycerol, 5% (v/v) (3-mercaptoethanol, 0.01% (v/v) bromophenol blue). The samples were directly loaded and resolved on SDS page gel (10% acrylamide). The gels were scanned using a ChemiDoc MP system (Cy3 settings, 605/50 filter).
(§3) The resolved proteins were transferred from the gels to a polyvinyldifluoride membrane for Western Blotting using a Trans-Blot® Turbo (BioRad). FLAG-tagged enzymes were stained using rabbit anti-FLAG as primary antibody, and goat-anti-rabbit HRP as secondary antibody. The blot was developed in the dark using a 10 mL luminal solution, 100 μL ECL enhancer and 3 μL H2O2. Chemiluminescence was visualized using a ChemiDoc XRS (BioRad).
(§4) The percentage of DAGL activity remaining in the assayed samples was determined by measuring the integrated optical intensity of the fluorescent protein bands of the Western Blot using image lab 4.1. The relative intensity was compared to the vehicle (DMSO) treated proteins, which were set to 100%. IC50 values were determined by plotting a log(inhibitor) vs. normalized response (Variable slope) dose-response curve generated using Prism software (GraphPad).

The target in the next assay is DAGLα (hDAGLα-FLAG) (Homo sapiens (Human), UniProt Q9Y4D2). The description is as above. In kind it is biochemical. The settings on record: for inhibition at 0.8 µM / DAGLα % inh. 0.8 μM: 0.8 μM (stated under the cell); for inhibition at 0.8 µM: read-out: DAGLα % inh. 0.8 μM. On the procedure: as §1, §2, §3, §4
Where [1] appears, read: ABPP method, n=3, read-out: IC50, DAGLβ.
Setting [2] is: ABPP method, n=3, read-out: IC50, DAGLα.

The structures appear in SMILES notation. Like-named read-outs stand apart in the source and are kept apart here.

Chain of DAGLα (hDAGLα-FLAG) (Q9Y4D2 whole entry): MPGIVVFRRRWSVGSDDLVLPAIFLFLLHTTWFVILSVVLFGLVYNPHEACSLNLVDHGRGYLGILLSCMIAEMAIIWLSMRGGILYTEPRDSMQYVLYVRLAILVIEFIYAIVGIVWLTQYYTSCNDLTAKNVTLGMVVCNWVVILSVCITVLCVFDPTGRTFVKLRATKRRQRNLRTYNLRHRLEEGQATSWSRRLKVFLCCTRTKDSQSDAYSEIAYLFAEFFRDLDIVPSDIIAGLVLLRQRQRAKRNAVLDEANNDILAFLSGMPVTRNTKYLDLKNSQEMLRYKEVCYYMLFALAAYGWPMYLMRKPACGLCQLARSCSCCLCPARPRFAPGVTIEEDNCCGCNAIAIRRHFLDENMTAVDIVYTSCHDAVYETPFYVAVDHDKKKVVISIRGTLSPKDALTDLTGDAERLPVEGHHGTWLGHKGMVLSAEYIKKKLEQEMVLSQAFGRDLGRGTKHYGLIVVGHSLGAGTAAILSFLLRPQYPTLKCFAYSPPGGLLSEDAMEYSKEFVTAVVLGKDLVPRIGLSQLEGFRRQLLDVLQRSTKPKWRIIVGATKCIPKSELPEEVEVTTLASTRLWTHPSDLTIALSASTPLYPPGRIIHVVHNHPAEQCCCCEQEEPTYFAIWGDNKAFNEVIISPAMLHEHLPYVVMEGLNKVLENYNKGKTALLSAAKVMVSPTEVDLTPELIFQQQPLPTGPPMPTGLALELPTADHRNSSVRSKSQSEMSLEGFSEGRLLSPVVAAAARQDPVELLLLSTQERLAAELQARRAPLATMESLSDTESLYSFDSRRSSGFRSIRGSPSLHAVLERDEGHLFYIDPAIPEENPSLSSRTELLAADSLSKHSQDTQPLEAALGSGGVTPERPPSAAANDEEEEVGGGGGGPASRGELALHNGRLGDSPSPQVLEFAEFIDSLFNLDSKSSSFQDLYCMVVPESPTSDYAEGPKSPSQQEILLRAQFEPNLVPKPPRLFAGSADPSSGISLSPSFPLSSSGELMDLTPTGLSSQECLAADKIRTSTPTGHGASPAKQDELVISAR
Chain of DAGLβ (hDAGLβ-FLAG) (Q8NCG7 whole entry): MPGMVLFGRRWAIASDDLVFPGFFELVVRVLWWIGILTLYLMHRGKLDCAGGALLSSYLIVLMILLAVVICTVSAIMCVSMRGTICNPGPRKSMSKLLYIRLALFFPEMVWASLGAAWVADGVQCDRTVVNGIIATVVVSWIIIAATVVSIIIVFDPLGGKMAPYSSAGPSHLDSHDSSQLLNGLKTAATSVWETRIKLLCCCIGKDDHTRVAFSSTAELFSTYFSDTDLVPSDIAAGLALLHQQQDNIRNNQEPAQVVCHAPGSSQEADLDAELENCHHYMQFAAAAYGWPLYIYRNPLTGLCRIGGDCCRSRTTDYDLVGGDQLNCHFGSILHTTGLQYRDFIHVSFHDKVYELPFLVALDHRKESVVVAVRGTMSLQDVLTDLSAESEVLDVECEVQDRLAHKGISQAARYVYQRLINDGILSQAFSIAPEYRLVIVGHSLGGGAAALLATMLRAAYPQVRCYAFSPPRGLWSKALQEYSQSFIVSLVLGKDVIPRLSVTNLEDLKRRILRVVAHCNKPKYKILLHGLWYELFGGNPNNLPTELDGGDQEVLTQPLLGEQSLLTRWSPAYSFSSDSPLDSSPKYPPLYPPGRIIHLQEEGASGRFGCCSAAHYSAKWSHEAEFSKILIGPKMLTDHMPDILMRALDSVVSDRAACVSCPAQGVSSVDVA

Usually IC50 stands for the point on the concentration scale where inhibition reaches its midpoint. For `COc1cncc(OC)c1-c1ccc(-c2cn(C(=O)N3CCCCC3Cc3ccccc3)nn2)cc1` (centres unmarked) [Compound 19, (2-Benzylpiperidin-1-yl)(4-(4-(3,5-dimethoxypyridin-4-yl)phenyl)-1H-1,2,3-triazol-1-yl)methanone], the IC50 is 106 nM at DAGLβ (hDAGLβ-FLAG) (setting [1]), at most 400 nM on DAGLβ (hDAGLβ-FLAG) (read-out: DAGLβ IC50), 9.5 nM on DAGLα (hDAGLα-FLAG) (setting [2]) and at most 400 nM at DAGLα (hDAGLα-FLAG) (read-out: DAGLα IC50).
With `COc1cc(OC)c(-c2ccc(-c3cn(C(=O)N4CCCCC4Cc4ccccc4)nn3)cc2)c(OC)c1` (centres unmarked) [Compound 20, (2-Benzylpiperidin-1-yl)(4-(2′,4′,6′-trimethoxybiphenyl-4-yl)-1H-1,2,3-triazol-1-yl)methanone], the IC50 at DAGLβ (hDAGLβ-FLAG) (setting [1]) was 319 nM; on DAGLβ (hDAGLβ-FLAG) (read-out: DAGLβ IC50), at most 400 nM; on DAGLα (hDAGLα-FLAG) (setting [2]), 16 nM; at DAGLα (hDAGLα-FLAG) (read-out: DAGLα IC50) it was at most 400 nM.
As to `CC(C)(C)OC(=O)N1CCN(C(=O)n2ncc(-c3ccc(OC(F)(F)F)cc3)n2)C(c2ccccc2)C1` (centres unmarked) [Compound 23, tert-butyl 3-phenyl-4-(4-(4-(trifluoromethoxy)phenyl)-2H-1,2,3-triazole-2-carbonyl)piperazine-1-carboxylate], the inhibition at 0.8 µM at DAGLβ (hDAGLβ-FLAG) (0.8 μM (stated under the cell)) and on DAGLα (hDAGLα-FLAG) was 0 to 25% in each case.
For `CC(C)C(=O)N1CCN(C(=O)n2cc(-c3ccc(OC(F)(F)F)cc3)nn2)C(Cc2ccccc2)C1` (centres unmarked) [Compound 26, 1-(3-benzyl-4-(4-(4-(trifluoromethoxy)phenyl)-1H-1,2,3-triazole-1-carbonyl)piperazin-1-yl)-2-methylpropan-1-one], the inhibition at 0.8 µM on DAGLβ (hDAGLβ-FLAG) (0.8 μM (stated under the cell)) fell in the range of 0 to 25%. At DAGLα (hDAGLα-FLAG), the “DAGLα % inh. 0.8 μM” value was “* (% inhibition greater than or equal to 0% and less than 25%)”.
As for `CC(C)C(=O)N1CCN(C(=O)n2ncc(-c3ccc(OC(F)(F)F)cc3)n2)C(Cc2ccccc2)C1` (centres unmarked) [Compound 27, 1-(3-benzyl-4-(4-(4-(trifluoromethoxy)phenyl)-2H-1,2,3-triazole-2-carbonyl)piperazin-1-yl)-2-methylpropan-1-one], the inhibition at 0.8 µM on DAGLβ (hDAGLβ-FLAG) (0.8 μM (stated under the cell)) and on DAGLα (hDAGLα-FLAG) was 0 to 25% throughout.
Consider `CC(C)C(=O)N1CCN(C(=O)n2cc(-c3ccc(OC(F)(F)F)cc3)nn2)C(Cc2ccccc2)C1` (centres unmarked) [Compound 30, 1-(3-benzyl-4-(4-(4-(trifluoromethoxy)phenyl)-1H-1,2,3-triazole-1-carbonyl)piperazin-1-yl)-2-methylpropan-1-one], for which the “DAGLβ % inh. 0.8 μM” value on DAGLβ (hDAGLβ-FLAG) (0.8 μM (stated under the cell)) is “* (% inhibition greater than or equal to 0% and less than 25%)”. In addition, the “DAGLα % inh. 0.8 μM” value at DAGLα (hDAGLα-FLAG) was “*** (% inhibition greater than or equal to 50% and less than 75%)”.
On to `C#CCCCC(=O)N1CCN(C(=O)n2cc(-c3ccc(OC(F)(F)F)cc3)nn2)C(Cc2ccccc2)C1` (centres unmarked) [Compound 34, 1-(3-benzyl-4-(4-(4-(trifluoromethoxy)phenyl)-1H-1,2,3-triazole-1-carbonyl)piperazin-1-yl)hex-5-yn-1-one], for which the inhibition at 0.8 µM fell in the range of 0 to 25% on DAGLβ (hDAGLβ-FLAG) (0.8 μM (stated under the cell)) and 25 to 50% at DAGLα (hDAGLα-FLAG).
`C#CCCCC(=O)N1CCN(C(=O)n2ncc(-c3ccc(OC(F)(F)F)cc3)n2)C(Cc2ccccc2)C1` (centres unmarked) [Compound 35, 1-(3-benzyl-4-(4-(4-(trifluoromethoxy)phenyl)-2H-1,2,3-triazole-2-carbonyl)piperazin-1-yl)hex-5-yn-1-one]: the inhibition at 0.8 µM on DAGLβ (hDAGLβ-FLAG) (0.8 μM (stated under the cell)) and on DAGLα (hDAGLα-FLAG) was 0 to 25% in each case.
As for `O=C(N1C[C@@H](OCC2CC2)CC[C@@H]1Cc1ccccc1)n1cc(-c2ccc(OC(F)(F)F)cc2)nn1` [Compound 44, ((2R,5S)-2-benzyl-5-(cyclopropylmethoxy)piperidin-1-yl)(4-(4-(trifluoromethoxy)phenyl)-1H-1,2,3-triazol-1-yl)methanone], the inhibition at 0.0032 µM was 0 to 25% at DAGLβ (hDAGLβ-FLAG) (read-out: DAGLβ % inh. 3.2 nM) and 25 to 50% at DAGLα (hDAGLα-FLAG) (3.2 nM, read-out: DAGLα % inh. 3.2 nM).
Turning to `CCC(CC)CN(CCc1ccccc1)C(=O)n1ncc(-c2ccc(OC(F)(F)F)cc2)n1` [Compound 126, N-(2-ethylbutyl)-N-phenethyl-4-(4-(trifluoromethoxy)phenyl)-2H-1,2,3-triazole-2-carboxamide], at DAGLα (hDAGLα-FLAG) (read-out: DAGLα IC50), the IC50 was 2000 to 10000 nM.
